In one assay the test system is Zymoseptoria tritici. The assay can be described thus: Leaf blotch of wheat (SEPTTR) disease control on wheat seedlings. Format: in vivo. On the set-up: key to SEPTTR 1DP, HV activity at 100 ppm (% control rating) / SEPTTR 3DC, HV activity at 100 ppm (% control rating) / SEPTTR disease control, 1DP / SEPTTR disease control, 3DC / SEPTTR 1DP disease control rating, HV activity / SEPTTR 3DC disease control rating, HV activity / SEPTTR 3DC, LV activity at 125.1 g/H (% Control rating) / SEPTTR 1DP, LV activity at 125.1 g/H (% Control rating) / SEPTTR 1DP disease control rating, LV activity at 125.1 g/H / SEPTTR 3DC disease control rating, LV activity at 125.1 g/H / SEPTTR 3DC disease control rating, HV activity at 100 ppm / SEPTTR 1DP disease control rating, HV activity at 100 ppm / HV activity at 100 ppm SEPTTR 3DC (disease control rating) / HV activity at 100 ppm SEPTTR 1DP (disease control rating) / LV activity at 125.1 g/H SEPTTR 1DP (disease control rating) / LV activity at 125.1 g/H SEPTTR 3DC (disease control rating): A: > 80; B: ≤ 80; C: Not Tested; D: No Activity Observed in the Reported Assay. Conditions: for SEPTTR 1DP disease control rating, HV activity at 100 ppm / SEPTTR 3DC disease control rating, HV activity at 100 ppm: high volume application. As to the method:
(§1) All fungicides were evaluated using the aforementioned method for their activity vs. all target diseases, unless stated otherwise. Wheat leaf blotch and brown rust activity were also evaluated using track spray applications, in which case the fungicides were formulated as EC formulations, containing 0.1% Trycol 5941 in the spray solutions. Wheat plants (variety Yuma) were grown from seed in a greenhouse in 50% mineral soil/50% soil-less Metro mix until the first leaf was fully emerged, with 7-10 seedlings per pot. These plants were inoculated with an aqueous spore suspension of Zymoseptoria tritici either prior to or after fungicide treatments. After inoculation the plants were kept in 100% relative humidity (one day in a dark dew chamber followed by two to three days in a lighted dew chamber at 20° C.) to permit spores to germinate and infect the leaf. The plants were then transferred to a greenhouse set at 20° C. for disease to develop. When disease symptoms were fully expressed on the 1st leaves of untreated plants, infection levels were assessed on a scale of 0 to 100 percent disease severity. Percent disease control was calculated using the ratio of disease severity on treated plants relative to untreated plants.

The next assay concerns Puccinia triticina. As to the kind of experiment: Wheat brown rust (PUCCRT) disease control on wheat seedlings. The format is in vivo. More on the design: key to PUCCRT 3DC, HV activity at 100 ppm (% control rating) / PUCCRT disease control, 3DC / PUCCRT 1DP disease control rating, HV activity / PUCCRT 3DC disease control rating, HV activity / PUCCRT 3DC, LV activity at 125.1 g/H (% Control rating) / PUCCRT 1DP, LV activity at 125.1 g/H (% Control rating) / PUCCRT 3DC disease control rating, LV activity at 125.1 g/H / PUCCRT 1DP disease control rating, LV activity at 125.1 g/H / PUCCRT 3DC disease control rating, HV activity at 100 ppm / PUCCRT 1DP disease control rating, HV activity at 100 ppm / HV activity at 100 ppm PUCCRT 3DC (disease control rating) / LV activity at 125.1 g/H PUCCRT 1DP (disease control rating) / LV activity at 125.1 g/H PUCCRT 3DC (disease control rating): A: > 80; B: ≤ 80; C: Not Tested; D: No Activity Observed in the Reported Assay. Conditions: for PUCCRT 1DP disease control rating, HV activity at 100 ppm / PUCCRT 3DC disease control rating, HV activity at 100 ppm: high volume application. As to the method: as §1, with “plants. Example B: Evaluation of Fungicidal Activity: Wheat Brown Rust (Puccinia triticina; Synonym: Puccinia recondita f. sp. Tritici; Bayer Code PUCCRT) Wheat plants (variety Yuma) were grown from seed in a greenhouse in 50% mineral soil/50% soil-less Metro mix until the first leaf was fully emerged, with 7-10 seedlings per pot. These plants were inoculated with an aqueous spore suspension of Puccinia triticina either prior to or after fungicide treatments. […] The plants were then transferred to a greenhouse set at 24° C. for disease to develop. Fungicide formulation, application and disease assessment followed the procedures as described in the Example A.” for “plants.”

Where [1] appears, read: low volume application, 125.1 g/H, 1 Day Protectant, wheat leaf blotch.
Where [2] appears, read: low volume application, 125.1 g/H, 3 Day Curative, wheat leaf blotch.
Where [3] appears, read: low volume application, 125.1 g/H, 1 Day Protectant, wheat brown rust.
[4] abbreviates: low volume application, 125.1 g/H, 3 Day Curative, wheat brown rust.
Setting [5] is: low volume application, 125.1 g/H, 1 day protectant.
The mark [6] stands for this setting: low volume application, 125.1 g/H, 3 day curative.
Where [7] appears, read: low volume application, 125.1 g/H, 1 Day Protectant.
Where [8] appears, read: low volume application, 125.1 g/H, 3 Day Curative.

Molecules are shown by their SMILES.

As to `COc1ccnc(C(=O)NCC(=O)O[C@@H](C)[C@H](Oc2ccccc2)C(C)C)c1O` [Cmpd 809], in the assay on Zymoseptoria tritici (1 day protectant), the “SEPTTR 1DP disease control rating, HV activity at 100 ppm” value was “D”. Also, in the assay on Zymoseptoria tritici (3 day curative), the “SEPTTR 3DC disease control rating, HV activity at 100 ppm” value is on record as “D”. Besides, in the assay with Puccinia triticina (1 day protectant), the “PUCCRT 1DP disease control rating, HV activity at 100 ppm” value was “A (> 80)”. The “PUCCRT 3DC disease control rating, HV activity at 100 ppm” value with Puccinia triticina (3 day curative) is on record as “A (> 80)”.
For `COc1ccnc(C(=O)N[C@@H](C)C(=O)O[C@@H](C)[C@H](OCC2CC2)c2ccccc2)c1O` [Cmpd 319], the “SEPTTR 1DP disease control rating, HV activity” value in the assay on Zymoseptoria tritici (HV application at 100 ppm, 1 Day Protectant, wheat leaf blotch) is listed as “A (> 80)”. For the same compound, in the assay on Zymoseptoria tritici (HV application at 100 ppm, 3 Day Curative, wheat leaf blotch), the “SEPTTR 3DC disease control rating, HV activity” value is on record as “A (> 80)”. For the same compound, the “PUCCRT 1DP disease control rating, HV activity” value in the assay with Puccinia triticina (HV application at 100 ppm, 1 Day Protectant, wheat brown rust) is “A (> 80)”. The “PUCCRT 3DC disease control rating, HV activity” value with Puccinia triticina (HV application at 100 ppm, 3 Day Curative, wheat brown rust) is “B (≤ 80)”.
Regarding `C=CC[C@@H](Oc1ccc(F)cc1F)[C@H](C)OC(=O)[C@H](C)NC(=O)c1nccc(OC)c1OCOC(C)=O` [Cmpd 1075], the “LV activity at 125.1 g/H SEPTTR 1DP (disease control rating)” value in the assay with Zymoseptoria tritici (setting [1]) is on record as “D”. The “LV activity at 125.1 g/H SEPTTR 3DC (disease control rating)” value in the assay with Zymoseptoria tritici (setting [2]) is reported as “B (≤ 80)”. The “LV activity at 125.1 g/H PUCCRT 1DP (disease control rating)” value in the assay on Puccinia triticina (setting [3]) was “A (> 80)”. Further, in the assay on Puccinia triticina (setting [4]), the “LV activity at 125.1 g/H PUCCRT 3DC (disease control rating)” value is on record as “B (≤ 80)”.
For the compound `COc1ccnc(C(=O)NC(C)C(=O)OC(C)C(Oc2ccccc2)c2ccccc2)c1OC(C)=O` (centres unmarked) [Cmpd 870], the “SEPTTR 1DP disease control rating, LV activity at 125.1 g/H” value in the assay on Zymoseptoria tritici (setting [5]) is reported as “A (> 80)”. In addition, the “SEPTTR 3DC disease control rating, LV activity at 125.1 g/H” value in the assay with Zymoseptoria tritici (setting [6]) is given as “A (> 80)”. The “PUCCRT 1DP disease control rating, LV activity at 125.1 g/H” value in the assay with Puccinia triticina (setting [5]) is listed as “A (> 80)”. In addition, in the assay on Puccinia triticina (setting [6]), the “PUCCRT 3DC disease control rating, LV activity at 125.1 g/H” value is given as “B (≤ 80)”.
As to `COc1ccnc(C(=O)NC(C)C(=O)OC(C)COC(=O)C(C)C)c1OCOC(=O)C(C)C` (centres unmarked) [Cmpd 531], the “SEPTTR 1DP, LV activity at 125.1 g/H (% Control rating)” value with Zymoseptoria tritici (setting [7]) was “D”. Further, in the assay with Zymoseptoria tritici (setting [8]), the “SEPTTR 3DC, LV activity at 125.1 g/H (% Control rating)” value was “B (≤ 80)”. In addition, the “PUCCRT 1DP, LV activity at 125.1 g/H (% Control rating)” value in the assay on Puccinia triticina (setting [7]) is reported as “D”. The “PUCCRT 3DC, LV activity at 125.1 g/H (% Control rating)” value in the assay with Puccinia triticina (setting [8]) is on record as “D”.
With `COc1ccnc(C(=O)NC(C)C(=O)OC(C)(C)C(Oc2ccccc2)C(C)C)c1O` (centres unmarked) [Cmpd 831], in the assay with Zymoseptoria tritici (1 day protectant), the “SEPTTR 1DP disease control rating, HV activity at 100 ppm” value is recorded as “D”. Besides, the “SEPTTR 3DC disease control rating, HV activity at 100 ppm” value in the assay with Zymoseptoria tritici (3 day curative) is “D”. Besides, in the assay on Puccinia triticina (1 day protectant), the “PUCCRT 1DP disease control rating, HV activity at 100 ppm” value is on record as “B (≤ 80)”. In addition, the “PUCCRT 3DC disease control rating, HV activity at 100 ppm” value with Puccinia triticina (3 day curative) is reported as “D”.
As to `COc1ccnc(C(=O)NC(C)C(=O)OC(C)C(CC(C)C)Oc2ccc3ccccc3c2)c1OC(C)=O` (centres unmarked) [Cmpd 1099], the “LV activity at 125.1 g/H SEPTTR 1DP (disease control rating)” value in the assay on Zymoseptoria tritici (setting [1]) is “B (≤ 80)”. The “LV activity at 125.1 g/H SEPTTR 3DC (disease control rating)” value in the assay on Zymoseptoria tritici (setting [2]) is listed as “D”. The “LV activity at 125.1 g/H PUCCRT 1DP (disease control rating)” value in the assay with Puccinia triticina (setting [3]) is “A (> 80)”. Besides, the “LV activity at 125.1 g/H PUCCRT 3DC (disease control rating)” value with Puccinia triticina (setting [4]) is “A (> 80)”.
In the case of `CCC[C@@H](OCC1CC1)[C@H](C)OC(=O)[C@H](C)NC(=O)c1nccc(OC)c1O` [Cmpd 1003], the “SEPTTR 1DP disease control rating, HV activity at 100 ppm” value in the assay on Zymoseptoria tritici (1 day protectant) is on record as “A (> 80)”. Besides, in the assay on Zymoseptoria tritici (3 day curative), the “SEPTTR 3DC disease control rating, HV activity at 100 ppm” value is reported as “B (≤ 80)”. In the assay on Puccinia triticina (1 day protectant), the “PUCCRT 1DP disease control rating, HV activity at 100 ppm” value is on record as “A (> 80)”. For the same compound, in the assay with Puccinia triticina (3 day curative), the “PUCCRT 3DC disease control rating, HV activity at 100 ppm” value was “A (> 80)”.

The record behind these values is US20180000085A1, “USE OF PICOLINAMIDE COMPOUNDS WITH FUNGICIDAL ACTIVITY” (DOW AGROSCIENCES LLC, priority 2014, published 2018).
